Results: patent publication US11981686B2, “Urea compound having substituent” (DAIICHI SANKYO COMPANY, LIMITED, priority 2019, dated 2024)

Biological target: SIRT6 enzyme (Homo sapiens, UniProt Q8N6T7)
Assay: Measurement of deacetylation activity (SIRT6, AlphaLISA, H3K9(Ac) peptide)
Type: biochemical
Conditions: SIRT6 25 ng/mL, H3K9(Ac) biotin peptide 2 nM, NAD 10 μM, room temperature 30 minutes, duplicate
Protocol: The reaction was performed in duplicate using a white 384-well plate (3824, Corning or 6008350, PerkinElmer) at a final reaction liquid volume of 20.1 μL. As a control for calculating the enzyme activity, the enzyme-added (DMSO (+)) and enzyme-free (DMSO (−)) wells were set at n=8. Test substances (examples of final concentrations: 0.046, 0.14, 0.41, 1.2, 3.7, 11, 33, and 100 μM) at a concentration of 100 times or 0.1 μL of DMSO was dispensed into the plate and 5 μL of SIRT6 enzyme (prepared by Daiichi Sankyo RD Novare Co., Ltd., final concentration: 25 ng/mL) diluted with an assay buffer (10 mM Tris-HCl pH of 8.0, 0.1% BSA, 0.01% Tween 20, 1 mM DTT, 12.5% Glycerol) was added thereto. The enzymatic reaction was started by adding 5 μL of a mixed solution [Lys(Ac)9]-Histone H3 (1-21)-NH2, H3K9 (Ac), biotin-labeled, amide (AnaSpec, AS-64190, final concentration: 2 nM) and β-nicotinamide adenine dinucleotide (Sigma-Aldrich, N8285-15VL, final concentration: 10 μM), and the reaction was performed at room temperature for 30 minutes. 10 μL of a mixed solution of nicotinamide (Sigma-Aldrich, 72340-100G, final concentration: 100 mM) prepared with AlphaLISA Epigenetics Buffer (PerkinElmer, AL008C), AlphaLISA Anti-unmodified Histone H3 Lysine 9/Lysine 27 (H3K9/K27) Acceptor Beads (PerkinElmer, AL138, final concentration: 10 μg/mL), and AlphaScreen Streptavidin Donor beads (PerkinElmer, 6760002, final concentration: 5 μg/mL) was added thereto, the reaction was performed at room temperature for 60 minutes and then stopped, and acetylation was detected. The emission intensity was measured by EnVision (PerkinElmer).
The relative enzyme activity (%) of the test substance was calculated by the following equation. Relative enzyme activity (%)=[(emission intensity of test substance-added well−emission intensity of DMSO (−) well)/(emission intensity of DMSO (+) well−emission intensity of DMSO (−) well)]×100
The EC150 (the concentration of the compound showing a relative enzyme activity of 150%) of the test substance was calculated based on Sigmoidal dose-response (variable slope) of GraphPad Prism (GraphPad Software) using the value of the relative enzyme activity (%) at each concentration, and the results are listed in Tables 1-1 to 1-5.

Sequence of SIRT6 enzyme (Q8N6T7 whole entry, species assumed): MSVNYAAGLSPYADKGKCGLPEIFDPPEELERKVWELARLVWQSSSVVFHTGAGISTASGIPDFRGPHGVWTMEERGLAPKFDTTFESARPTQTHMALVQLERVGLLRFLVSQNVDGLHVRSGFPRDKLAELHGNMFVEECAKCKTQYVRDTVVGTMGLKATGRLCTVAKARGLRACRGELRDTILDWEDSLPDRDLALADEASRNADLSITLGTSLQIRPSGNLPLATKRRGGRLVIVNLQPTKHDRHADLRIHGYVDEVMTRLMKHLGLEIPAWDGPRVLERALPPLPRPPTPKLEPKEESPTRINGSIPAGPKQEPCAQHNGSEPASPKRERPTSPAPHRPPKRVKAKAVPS

Compound | EC150 (the concentration of the compound showing a relative enzyme activity of 150%)
CNC(=O)Nc1nc2c(s1)[C@@H]1CC[C@H](C2)N1c1nc(-c2ccc(F)cc2)no1 (relative stereo) [Example 10, N-{(5R*,8S*)-9-[3-(4-fluorophenyl)-1,2,4-oxadiazol-5-yl]-5,6,7,8-tetrahydro-4H-5,8-epiminocyclohepta[d][1,3]thiazol-2-yl}-N′-methylurea] | 1.0 μm
CNC(=O)Nc1nc2c(s1)[C@@H]1CCC[C@H](C2)N1c1nc(-c2ccc(F)cc2)no1 (relative stereo) [Example 12, N-{(5R*,9S*)-10-[3-(4-fluorophenyl)-1,2,4-oxadiazol-5-yl]-4,5,6,7,8,9-hexahydro-5,9-epiminocycloocta[d][1,3]thiazol-2-yl}-N′-methylurea] | 1.4 μm
CNC(=O)Nc1nc2c(s1)[C@H]1CN(C(C)=O)C[C@@H](C2)N1c1nc(-c2ccc(F)cc2)no1 (relative stereo) [Example 23, (−)-N-{(4R*,8R*)-6-acetyl-10-[3-(4-fluorophenyl)-1,2,4-oxadiazol-5-yl]-4,5,6,7,8,9-hexahydro-4,8-epimino[1,3]thiazolo[5,4-d]azocin-2-yl}-N′-methylurea] | 0.19 μm
CNC(=O)Nc1nc2c(s1)[C@H]1CN(C(=O)OC)C[C@@H](C2)N1c1nc(-c2ccc(F)cc2)no1 (relative stereo) [Example 24, (−)-Methyl (4R*,8R*)-10-[3-(4-fluorophenyl)-1,2,4-oxadiazol-5-yl]-2-[(methylcarbamoyl)amino]-4,7,8,9-tetrahydro-4,8-epimino[1,3]thiazolo[5,4-d]azocine-6(5H)-carboxylate] | 0.19 μm
COC(=O)N1C[C@H]2Cc3nc(NC(=O)NCC(C)(C)O)sc3[C@@H](C1)N2c1nc(C2(C(F)(F)F)CC2)no1 (relative stereo) [Example 33, Methyl (4R*,8R*)-2-{[(2-hydroxy-2-methylpropyl)carbamoyl]amino}-10-{3-[1-(trifluoromethyl)cyclopropyl]-1,2,4-oxadiazol-5-yl}-4,7,8,9-tetrahydro-4,8-epimino[1,3]thiazolo[5,4-d]azocine-6(5H)-carboxylate] | 1.6 μm
CNC(=O)Nc1nc2c(s1)[C@@H]1COC[C@H](C2)N1c1nc(-c2ccc(F)cc2)no1 (single isomer, unassigned) [Example 13] | 1.3 μm
CNC(=O)Nc1nc2c(s1)CN(c1nc(C3CCC(F)(F)CC3)no1)CC2 [Example 1, N-{5-[3-(4,4-difluorocyclohexyl)-1,2,4-oxadiazol-5-yl]-4,5,6,7-tetrahydro[1,3]thiazolo[5,4-c]pyridin-2-yl}-N′-methylurea] | 1.7 μm
CNC(=O)Nc1nc2c(s1)CN(c1nnc(C(F)(F)F)o1)CC2 [Example 2, N-methyl-N′-{5-[5-(trifluoromethyl)-1,3,4-oxadiazol-2-yl]-4,5,6,7-tetrahydro[1,3]thiazolo[5,4-c]pyridin-2-yl}urea] | 1.6 μm
CCO[C@H](C)c1nnc(N2CCc3nc(NC(=O)NC)sc3C2)o1 [Example 3, N-(5-{5-[(1R)-1-ethoxyethyl]-1,3,4-oxadiazol-2-yl}-4,5,6,7-tetrahydro[1,3]thiazolo[5,4-c]pyridin-2-yl)-N′-methylurea] | 3.4 μm
CNC(=O)Nc1nc2c(s1)CN(c1nc(C(C)OCC(F)(F)F)no1)CC2 (stereo not shown) [Example 4, N-methyl-N′-(5-{3-[1-(2,2,2-trifluoroethoxy)ethyl]-1,2,4-oxadiazol-5-yl}-4,5,6,7-tetrahydro[1,3]thiazolo[5,4-c]pyridin-2-yl)urea] | 1.2 μm
C[C@H](CO)NC(=O)Nc1nc2c(s1)CN(c1nc(C3CCC(F)(F)CC3)no1)CC2 [Example 5, N-{5-[3-(4,4-difluorocyclohexyl)-1,2,4-oxadiazol-5-yl]-4,5,6,7-tetrahydro[1,3]thiazolo[5,4-c]pyridin-2-yl}-N′-[(2R)-1-hydroxypropan-2-yl]urea] | 1.5 μm
CNC(=O)Nc1nc2c(s1)C1COCC(C2)N1c1nc([C@H]2CC[C@@H](C(F)(F)F)CC2)no1 (stereo partly shown) [Example 6, N-methyl-N′-(10-{3-[(1s,4s)-4-(trifluoromethyl)cyclohexyl]-1,2,4-oxadiazol-5-yl}-4,7,8,9-tetrahydro-5H-4,8-epiminooxocino[5,4-d][1,3]thiazol-2-yl)urea] | 4.5 μm
CNC(=O)Nc1nc2c(s1)[C@@H]1COC[C@H](C2)N1c1nc(C2CCC(F)(F)CC2)no1 [Example 7, N-{(4S,8S)-10-[3-(4,4-difluorocyclohexyl)-1,2,4-oxadiazol-5-yl]-4,7,8,9-tetrahydro-5H-4,8-epiminooxocino[5,4-d][1,3]thiazol-2-yl}-N′-methylurea] | 5.7 μm
CNC(=O)Nc1nc2c(s1)CN(c1nc(-c3cccc(OC(F)(F)F)c3)no1)CC2 [Example 8, N-methyl-N′-(5-{3-[3-(trifluoromethoxy)phenyl]-1,2,4-oxadiazol-5-yl}-4,5,6,7-tetrahydro[1,3]thiazolo[5,4-c]pyridin-2-yl)urea] | 3.6 μm
CNC(=O)Nc1nc2c(s1)CN(c1nnc(-c3ccc(F)c(C)c3)o1)CC2 [Example 9, N-{5-[5-(4-fluoro-3-methylphenyl)-1,3,4-oxadiazol-2-yl]-4,5,6,7-tetrahydro[1,3]thiazolo[5,4-c]pyridin-2-yl}-N′-methylurea] | 1.2 μm
CNC(=O)Nc1nc2c(s1)C1CCC(C2)N1c1cc(-c2ccc(F)cc2)on1 (stereo not shown) [Example 11, N-{9-[5-(4-fluorophenyl)-1,2-oxazol-3-yl]-5,6,7,8-tetrahydro-4H-5,8-epiminocyclohepta[d][1,3]thiazol-2-yl}-N′-methylurea] | 4.3 μm
CNC(=O)Nc1nc2c(s1)C1COCC(C2)N1c1ncc(-c2cccc(C(F)F)c2)o1 (stereo not shown) [Example 14, N-(10-{5-[3-(difluoromethyl)phenyl]-1,3-oxazol-2-yl}-4,7,8,9-tetrahydro-5H-4,8-epiminooxocino[5,4-d][1,3]thiazol-2-yl)-N′-methylurea] | 0.94 μm
CNC(=O)Nc1nc2c(s1)[C@@H]1COC[C@H](C2)N1c1ncc(-c2cccc(OC)n2)o1 [Example 15, N-{(4S,8S)-10-[5-(6-methoxypyridin-2-yl)-1,3-oxazol-2-yl]-4,7,8,9-tetrahydro-5H-4,8-epiminooxocino[5,4-d][1,3]thiazol-2-yl}-N′-methylurea] | 1.1 μm
CNC(=O)Nc1nc2c(s1)C1COCC(C2)N1c1cc(-c2ccc(F)cc2)on1 (stereo not shown) [Example 16, N-{10-[5-(4-fluorophenyl)-1,2-oxazol-3-yl]-4,7,8,9-tetrahydro-5H-4,8-epiminooxocino[5,4-d][1,3]thiazol-2-yl}-N′-methylurea] | 4.2 μm
CNC(=O)Nc1nc2c(s1)[C@@H]1COC[C@H](C2)N1c1nc(-c2ccc(F)cc2)co1 [Example 17, N-{(4S,8S)-10-[4-(4-fluorophenyl)-1,3-oxazol-2-yl]-4,7,8,9-tetrahydro-5H-4,8-epiminooxocino[5,4-d][1,3]thiazol-2-yl}-N′-methylurea] | 1.8 μm
C[C@H](CO)NC(=O)Nc1nc2c(s1)C1COCC(C2)N1c1nc(-c2ccc(F)cc2)no1 (stereo partly drawn) [Example 18, N-{10-[3-(4-fluorophenyl)-1,2,4-oxadiazol-5-yl]-4,7,8,9-tetrahydro-5H-4,8-epiminooxocino[5,4-d][1,3]thiazol-2-yl}-N′-[(2R)-1-hydroxypropan-2-yl]urea] | 0.95 μm
CNC(=O)Nc1nc2c(s1)C1CN(C(C)=O)CC(C2)N1c1nc(-c2ccc(F)cc2)no1 (stereo not shown) [Example 19, N-{6-acetyl-10-[3-(4-fluorophenyl)-1,2,4-oxadiazol-5-yl]-4,5,6,7,8,9-hexahydro-4,8-epimino[1,3]thiazolo[5,4-d]azocin-2-yl}-N′-methylurea] | 0.60 μm
